Assay results: ChEMBL document CHEMBL1138625, “Synthesis and evaluation of novel phenoxypropanolamine derivatives containing acetanilides as potent and selective beta3-adrenergic receptor agonists” (Bioorg Med Chem, 2009)

Legend:
[1] = molecular target: Beta-2 adrenergic receptor (Homo sapiens, UniProt P07550)
Description: Agonist activity at human beta2 adrenergic receptor expressed in CHO cells assessed as cAMP accumulation

[2] = molecular target: Beta-1 adrenergic receptor (Homo sapiens) (UniProt P08588); experiment: Agonist activity at human adrenergic receptor expressed in CHO cells assessed as cAMP accumulation
[3] = molecular target: Beta-3 adrenergic receptor (Homo sapiens) (UniProt P13945)
Sequence of Beta-3 adrenergic receptor (Homo sapiens) (P13945 whole entry, looked up): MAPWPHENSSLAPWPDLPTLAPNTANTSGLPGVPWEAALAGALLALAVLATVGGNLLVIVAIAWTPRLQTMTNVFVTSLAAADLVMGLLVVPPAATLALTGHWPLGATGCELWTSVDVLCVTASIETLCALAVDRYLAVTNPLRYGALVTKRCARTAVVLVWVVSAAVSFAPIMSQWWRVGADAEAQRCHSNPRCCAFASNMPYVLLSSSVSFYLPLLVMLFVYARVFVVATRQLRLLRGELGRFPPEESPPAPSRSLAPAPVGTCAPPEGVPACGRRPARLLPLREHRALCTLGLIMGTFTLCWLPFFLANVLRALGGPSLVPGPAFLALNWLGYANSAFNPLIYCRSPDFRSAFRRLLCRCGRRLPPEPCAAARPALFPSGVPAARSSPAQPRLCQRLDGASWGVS

[4] = molecular target: Beta-1 adrenergic receptor (Homo sapiens) (UniProt P08588); details: CHO
Mus musculus = experiment: Hypoglycemic activity in diabetic kk mouse assessed as reduction in plasma glucose level at 30 mg/kg, po administered once daily for 4 days by colorimetry; assay type: functional; parameters: scale not given: the % may be the effect or the level left
[5] = Oral bioavailability in rat; assay type: ADME, organism-based; details: in vivo

Sequence of Beta-2 adrenergic receptor (P07550 whole entry): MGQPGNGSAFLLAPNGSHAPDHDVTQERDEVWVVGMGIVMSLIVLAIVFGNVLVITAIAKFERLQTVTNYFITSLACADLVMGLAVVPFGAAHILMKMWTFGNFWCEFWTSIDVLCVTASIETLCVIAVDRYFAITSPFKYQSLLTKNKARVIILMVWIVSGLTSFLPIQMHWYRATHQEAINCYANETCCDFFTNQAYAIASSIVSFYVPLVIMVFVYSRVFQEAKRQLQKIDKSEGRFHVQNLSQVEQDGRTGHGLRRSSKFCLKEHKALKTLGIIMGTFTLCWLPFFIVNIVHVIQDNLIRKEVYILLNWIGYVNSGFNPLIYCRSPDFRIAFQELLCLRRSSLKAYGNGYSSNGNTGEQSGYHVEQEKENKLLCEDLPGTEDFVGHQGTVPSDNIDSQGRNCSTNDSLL

Row | Structure (SMILES) | EC50 [1] [µM] | EC50 [2] [nM] | EC50 [3] [nM] | Intrinsic activity [4] | Activity (Mus musculus) [%] | bioavailability [5] [%]
1 | O=C(Cc1nc2ccccc2n1Cc1ccccc1)Nc1ccc(CCNC[C@H](O)COc2ccccc2)cc1 | > 100 | – | – | – | – | –
2 | CC(Cc1ccc(NC(=O)Cc2nccn2Cc2ccccc2)cc1)NC[C@H](O)COc1ccccc1 (single isomer, unassigned; diastereomer I) | 0.027 | – | – | – | – | –
3 | O=C(Cc1cccc(Cl)n1)Nc1ccc(CCNC[C@H](O)COc2ccccc2)cc1 | > 100 | – | – | – | – | –
4 | CCCN(C(=O)Cc1nccn1Cc1ccccc1)c1ccc(CCNC[C@H](O)COc2ccccc2)cc1 | > 100 | > 100000 | 500 | 0.01 | – | –
5 | O=C(Cc1nccn1Cc1ccccc1)Nc1ccc(CCNC[C@H](O)COc2ccccc2)cc1 | > 100 | 130 | 180 | 0.2 | 43 | –
6 | O=C(Cc1ncc[nH]1)Nc1ccc(CCNC[C@H](O)COc2ccccc2)cc1 | > 100 | 510 | 9600 | 0.26 | – | –
7 | O=C(Cc1nccn1-c1ccccc1)Nc1ccc(CCNC[C@H](O)COc2ccccc2)cc1 | > 100 | – | – | – | – | –
8 | O=C(Cc1nccn1Cc1ccc2ccccc2c1)Nc1ccc(CCNC[C@H](O)COc2ccccc2)cc1 | > 100 | – | – | – | – | –
9 | O=C(Cc1nccn1Cc1ccc(Cl)cc1)Nc1ccc(CCNC[C@H](O)COc2ccccc2)cc1 | > 100 | 74 | 270 | 0.13 | – | –
10 | O=C(Cc1ccccn1)Nc1ccc(CCNC[C@H](O)COc2cccc3[nH]ccc23)cc1 | > 100 | > 100000 | 1300 | 0 | – | –
11 | Cc1cccnc1CC(=O)Nc1ccc(CCNC[C@H](O)COc2ccccc2)cc1 | > 100 | 390 | 330 | 0.18 | – | –
12 | O=C(Cc1cccc(OCc2ccccc2)n1)Nc1ccc(CCNC[C@H](O)COc2ccccc2)cc1 | > 100 | 200 | 2500 | 0.12 | – | –
13 | O=C(Cc1ccccn1)Nc1ccc(CCNC[C@H](O)COc2ccc(O)cc2)cc1 | > 100 | 2700 | 290 | 0.14 | – | 2
14 | O=C(Cc1nccn1Cc1ccccc1)N1CCCc2cc(CCNC[C@H](O)COc3ccccc3)ccc21 | > 100 | – | – | – | – | –
15 | Cc1cc(C)nc(CC(=O)Nc2ccc(CCNC[C@H](O)COc3ccccc3)cc2)c1 | > 100 | 310 | 280 | 0.17 | – | –
16 | O=C(Cc1ccccn1)Nc1ccc(CCNC[C@H](O)COc2cccnc2)cc1 | > 100 | – | – | – | – | –
17 | O=C(Cc1cn(Cc2ccccc2)cn1)Nc1ccc(CCNC[C@H](O)COc2ccccc2)cc1 | > 100 | – | – | – | – | –
18 | O=C(Cc1ccccn1)Nc1ccc(CCNC[C@H](O)COc2ccccc2)cc1 | > 100 | > 100000 | 120000 | 0.11 | – | 27
19 | CC(Cc1ccc(NC(=O)Cc2nccn2Cc2ccccc2)cc1)NC[C@H](O)COc1ccccc1 (stereo in doubt; 27b) | > 100 | – | – | – | – | –
20 | CN(C(=O)Cc1nccn1Cc1ccccc1)c1ccc(CCNC[C@H](O)COc2ccccc2)cc1 | > 100 | > 100000 | 280 | 0.04 | 38 | –
21 | CS(=O)(=O)Nc1ccc(OC[C@@H](O)CNCCc2ccc(NC(=O)Cc3ccccn3)cc2)cc1 | > 100 | > 100000 | > 100000 | 0.01 | – | –
22 | O=C(Cc1ccccn1)Nc1ccc(CCNC[C@H](O)COc2cccc3[nH]c4ccccc4c23)cc1 | > 100 | – | – | – | – | –
23 | O=C(Cc1ccccn1)Nc1ccc(CCNC[C@H](O)COc2cccc3[nH]c(=O)[nH]c23)cc1 | > 100 | – | – | – | – | –
24 | O=C(Cc1nccn1Cc1ccc(Br)cc1)Nc1ccc(CCNC[C@H](O)COc2ccccc2)cc1 | > 100 | 71 | 190 | 0.3 | – | –
